Laboratory results from patent US9353061B2, “3,5,N-trihydroxy-alkanamide and derivatives: method for making same and use thereof” (Academia Sinica, priority 2012, dated 2016).
Several values for one entry are separate records, joined by “and”; a condition that tells them apart may be missing. Equal values may be shown once. Read-outs that look alike come from different tables or passages of the source.

What was measured:
[1] = tested on: MEF normal mouse fibroblast cells; assay: cells; type: cell-based; settings: for IC50 / cytotoxicity on MEF normal cells (in words): 72 h; for IC50: MTT assay; for SI A549/MEF (selectivity index): ratio of IC50 values, cancer cell and normal cell; for cytotoxicity on MEF normal cells (in words): MTT, FIG. 4C/4D; for toxicity to normal cells at 100 μM: MEF
Method: (§4) The cell viability was measured by MTT assay.
(§5) A549 human lung carcinoma cells from American Type Culture Collection (ATCC) were cultured in Dulbecco's Modified Eagle Medium (DMEM). […] All mediums were supplemented with 10% fetal bovine serum (FBS), 100 U/mL penicillin G and 100 mg/mL streptomycin sulfate. Cells were maintained in a humidified incubator containing 5% CO2 in air. Cells were subcultured by trypsinization in laminar flow when grew about 80% in the culture dishes.
(§6) A549 cells were seeded at 3000 cells/well in 96-well plates and maintained for 14-16 hours. Cells were treated with dimethylsulfoxide DMSO or test compounds in varied concentrations for 72 h. Cells were then washed with PBS twice, added a medium containing 3-(4,5-dimethylthiazol-2-yl)-2,5-diphenyltetrazolium bromide (MTT) at a final concentration of 0.5 mg/mL, and incubated for 4 h at 37° C. in a humidified incubator containing 5% CO2 in air. Cells having functional succinate dehydrogenase of mitochondria would convert MTT to formazan. Then, the medium was replaced with 100 μL of DMSO for 30 min at room temperature, and the 96-well plate was read by an ELISA reader at 550 nm to get the absorbance density values. The IC50 values of death cell lines were calculated accordingly.

[2] = tested on: HS68 normal human fibroblast cells; assay: cells; type: cell-based; settings: for IC50 / cytotoxicity on HS68 normal cells (in words): 72 h; for IC50: MTT assay; for cytotoxicity on HS68 normal cells (in words): MTT, FIG. 4B/4D; for toxicity to normal cells at 100 μM: HS68, 100 μM
Method: as §4, §5, §6

[3] = tested on: A549 human lung cancer cells; assay: Cell proliferation (MTT) assay, cancer cells; settings: for cell viability of A549 (in words): MTT, FIG. 4A/4D
Method: as §4, §5, §6

HMG-CoA reductase (HMGR) = HMG-CoA reductase (HMGR) (Homo sapiens (Human), UniProt P04035); assay: HMG-CoA reductase activity assay (NADPH consumption, Sigma kit); type: biochemical; settings: for IC50: human recombinant protein; for HMGR inhibition (in words): enzyme-based
Method: (§1) The HMGR activity was performed using HMG-CoA reductase assay kit from Sigma-Aldrich with the human recombinant protein or 100 μg total cell lysates from A549 cells. […] HMGR activity under defined assay conditions, containing NADPH and HMG-CoA substrate in a final volume of 0.2 mL of 100 mM potassium phosphatate buffer (120 mM KCl, 1 mM EDTA, 5 mM DTT, pH 7.4), were initiated in the presence or absence (control) of test compounds dissolved in dimethylsulfoxide (DMSO). The rates of NADPH consumption were monitored every 20 seconds, for up to 10 minutes, by spectrophotometer at 37° C. and 340 nm. The HMGR activity was calculated as a percentage of activity compared with the control group at 5 min. The IC50 values were calculated from software SigmaPlot.
(§2) HDAC fluorometric activity assay was performed using Fluor-de-Lys as the substrate (BIOMOL, Plymouth Meeting, Pa., USA), and HMGR inhibition was evaluated by the […].

HDAC6 = HDAC6 (Homo sapiens (Human), UniProt Q9UBN7); assay: HDAC fluorimetric activity assay (Fluor-de-Lys); type: biochemical; settings: recombinant HDAC6
Method: (§3) The HDAC activity was performed using the HDAC fluorescent activity assay kit (BIOMOL, Plymouth Meeting, Pa., USA) according to the manufacturer's instructions. Briefly, recombinant proteins of HDAC1 or HDAC6 were incubated with test compounds, and HDAC reaction was initiated by addition of Fluor-de-Lys substrate. Samples were incubated for 10 min at room temperature, followed by adding developer to stop the reaction. Fluorescence was measured by fluorometric reader with excitation at 360 nm and emission at 460 nm. The HDAC activity was expressed as arbitrary fluorescence units (AFU). The HDAC activity was calculated as a percentage of activity compared with the control group. The half maximal inhibitory concentration (IC50) values for the test compounds were calculated from software SigmaPlot.
as §2

HDAC1 = HDAC1 (Homo sapiens (Human), UniProt Q13547); assay: HDAC fluorimetric activity assay (Fluor-de-Lys); type: biochemical; settings: recombinant HDAC1
Method: as §3, §2

HDAC2 = HDAC2 (Homo sapiens (Human), UniProt Q92769); assay: HDAC fluorimetric activity assay (Fluor-de-Lys); type: biochemical
[4] = tested on: acetyl-histone H3 and acetyl-tubulin in A549 lung cancer cells; assay: Western blot of acetyl-histone H3 and acetyl-tubulin; type: cell-based, human; settings: dose-dependent, FIG. 2
Method: FIG. 2 is a photo showing the effect of test compounds on acetylation of histone H3 and tubulin in A549 lung cancer cell lines. […] A549 cells were treated with the indicated doses of test compounds. Total cell lysates were prepared and subjected to SDS-PAGE using adequate percentage of polyacrylamide gels. Immunoblotting was performed using specific antibodies to evaluate the expression of different proteins.
Following treatment with test compounds, cells were lysed on ice. Total cell lysates were centrifuged at 13,000 rpm for 15 min at 4° C., and then subjected to SDS-PAGE using adequate percentage polyacrylamide gels. Immunoblotting was performed using specific antibodies to evaluate the expression of different proteins.
A549 lung cancer cells were treated with the test compound, and the expression of acetyl-histone H3 and acetyl-tubulin were analyzed by SDS-PAGE using immunoblotting.

[5] = tested on: AOM/DSS-induced colitis-associated colorectal cancer; assay: AOM/DSS colitis-associated colorectal cancer model, treatment after AOM/DSS; settings: for AOM/DSS-induced weight loss / clinical symptoms: oral 100 mg/kg, 5 days a week for 3 weeks after AOM/DSS; for histological examination of colon: treatment after AOM/DSS
Method: Lova-HA and Atorva-HA were dissolved in corn oil. Lova-HA (100 mg/kg), Atorva-HA (100 mg/kg) or the vehicle (corn oil) was orally administered after AOM/DSS treatment 5 days a week for 3 weeks. All mice were sacrificed after 12 weeks and colon segments were fixed in formalin.
To further investigate whether Lova-HA and Atorva-HA can treat cancer, a C57/BL6 mouse model of colitis-associated CRC was performed after the AOM and 3 cycles of DSS treatment. […] The formation of polyps and colonic tumors were macroscopically observed and counted.

[6] = target: HMG-CoA reductase in A549 lung cancer cells (Homo sapiens (Human), UniProt P04035); assay: Cell-based assay of HMGR inhibition (cell lysates); settings: A549 cells treated 24 hours, FIG. 3
Method: as §1

[7] = tested on: AOM/DSS-induced colitis-associated colorectal cancer; assay: AOM/DSS colitis-associated colorectal cancer model, chemoprevention
From the text: All mice were sacrificed at 9 weeks and colon segments were fixed by formalin.
Male C57BL6 mice obtained at 4-5 weeks of age were divided into four groups. […] All mice were sacrificed after 9 weeks and colon segments were fixed in formalin. H&E stain colonic sections were examined for colonic aberrant crypts.
The formation of polyps and colonic tumors were macroscopically observed and counted.

[8] = Homo sapiens, A549, 72 h, read-out: IC50 (μM) A549, 72 h, MTT assay

HMG-CoA reductase (HMGR), sequence (P04035 426-888): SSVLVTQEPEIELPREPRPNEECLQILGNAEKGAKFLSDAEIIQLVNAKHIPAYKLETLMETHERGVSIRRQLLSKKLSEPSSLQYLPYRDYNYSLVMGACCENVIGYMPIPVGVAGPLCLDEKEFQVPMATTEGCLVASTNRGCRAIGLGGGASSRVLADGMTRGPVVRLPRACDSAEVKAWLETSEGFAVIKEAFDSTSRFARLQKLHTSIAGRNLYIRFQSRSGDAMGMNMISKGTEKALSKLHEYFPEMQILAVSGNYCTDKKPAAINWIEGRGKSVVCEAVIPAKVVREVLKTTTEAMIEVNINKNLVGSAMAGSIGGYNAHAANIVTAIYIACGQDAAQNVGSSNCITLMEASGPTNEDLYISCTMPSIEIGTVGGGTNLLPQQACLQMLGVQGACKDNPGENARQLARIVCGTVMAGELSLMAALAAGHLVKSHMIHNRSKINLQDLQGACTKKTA
HDAC2, sequence (Q92769 whole entry): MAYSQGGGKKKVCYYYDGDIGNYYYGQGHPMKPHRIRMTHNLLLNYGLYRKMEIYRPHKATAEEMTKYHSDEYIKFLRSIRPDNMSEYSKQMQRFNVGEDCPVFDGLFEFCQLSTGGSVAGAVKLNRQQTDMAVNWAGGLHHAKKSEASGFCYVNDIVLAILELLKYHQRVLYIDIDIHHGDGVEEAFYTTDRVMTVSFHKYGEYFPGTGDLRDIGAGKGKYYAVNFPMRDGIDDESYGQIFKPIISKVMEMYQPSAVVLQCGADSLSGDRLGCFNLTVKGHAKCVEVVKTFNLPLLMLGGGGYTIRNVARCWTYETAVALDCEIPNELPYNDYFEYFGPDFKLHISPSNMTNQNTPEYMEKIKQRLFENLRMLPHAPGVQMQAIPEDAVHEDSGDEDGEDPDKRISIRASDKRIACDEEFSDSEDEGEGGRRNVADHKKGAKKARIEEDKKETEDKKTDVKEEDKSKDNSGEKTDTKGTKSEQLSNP
HDAC1, sequence (Q13547 whole entry): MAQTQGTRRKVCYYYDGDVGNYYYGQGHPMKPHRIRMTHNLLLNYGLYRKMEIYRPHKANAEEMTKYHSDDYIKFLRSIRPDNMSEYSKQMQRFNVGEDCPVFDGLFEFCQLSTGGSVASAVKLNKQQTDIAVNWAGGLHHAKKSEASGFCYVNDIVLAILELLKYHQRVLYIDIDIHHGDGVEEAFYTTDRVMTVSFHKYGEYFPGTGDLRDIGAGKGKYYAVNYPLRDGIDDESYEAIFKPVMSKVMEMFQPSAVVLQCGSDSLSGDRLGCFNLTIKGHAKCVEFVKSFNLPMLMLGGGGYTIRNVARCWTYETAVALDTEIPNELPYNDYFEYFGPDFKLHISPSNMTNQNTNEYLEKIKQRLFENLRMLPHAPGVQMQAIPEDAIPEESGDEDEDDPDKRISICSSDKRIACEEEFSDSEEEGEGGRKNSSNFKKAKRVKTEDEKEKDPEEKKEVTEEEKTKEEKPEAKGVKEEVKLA
HDAC6, sequence (Q9UBN7 whole entry): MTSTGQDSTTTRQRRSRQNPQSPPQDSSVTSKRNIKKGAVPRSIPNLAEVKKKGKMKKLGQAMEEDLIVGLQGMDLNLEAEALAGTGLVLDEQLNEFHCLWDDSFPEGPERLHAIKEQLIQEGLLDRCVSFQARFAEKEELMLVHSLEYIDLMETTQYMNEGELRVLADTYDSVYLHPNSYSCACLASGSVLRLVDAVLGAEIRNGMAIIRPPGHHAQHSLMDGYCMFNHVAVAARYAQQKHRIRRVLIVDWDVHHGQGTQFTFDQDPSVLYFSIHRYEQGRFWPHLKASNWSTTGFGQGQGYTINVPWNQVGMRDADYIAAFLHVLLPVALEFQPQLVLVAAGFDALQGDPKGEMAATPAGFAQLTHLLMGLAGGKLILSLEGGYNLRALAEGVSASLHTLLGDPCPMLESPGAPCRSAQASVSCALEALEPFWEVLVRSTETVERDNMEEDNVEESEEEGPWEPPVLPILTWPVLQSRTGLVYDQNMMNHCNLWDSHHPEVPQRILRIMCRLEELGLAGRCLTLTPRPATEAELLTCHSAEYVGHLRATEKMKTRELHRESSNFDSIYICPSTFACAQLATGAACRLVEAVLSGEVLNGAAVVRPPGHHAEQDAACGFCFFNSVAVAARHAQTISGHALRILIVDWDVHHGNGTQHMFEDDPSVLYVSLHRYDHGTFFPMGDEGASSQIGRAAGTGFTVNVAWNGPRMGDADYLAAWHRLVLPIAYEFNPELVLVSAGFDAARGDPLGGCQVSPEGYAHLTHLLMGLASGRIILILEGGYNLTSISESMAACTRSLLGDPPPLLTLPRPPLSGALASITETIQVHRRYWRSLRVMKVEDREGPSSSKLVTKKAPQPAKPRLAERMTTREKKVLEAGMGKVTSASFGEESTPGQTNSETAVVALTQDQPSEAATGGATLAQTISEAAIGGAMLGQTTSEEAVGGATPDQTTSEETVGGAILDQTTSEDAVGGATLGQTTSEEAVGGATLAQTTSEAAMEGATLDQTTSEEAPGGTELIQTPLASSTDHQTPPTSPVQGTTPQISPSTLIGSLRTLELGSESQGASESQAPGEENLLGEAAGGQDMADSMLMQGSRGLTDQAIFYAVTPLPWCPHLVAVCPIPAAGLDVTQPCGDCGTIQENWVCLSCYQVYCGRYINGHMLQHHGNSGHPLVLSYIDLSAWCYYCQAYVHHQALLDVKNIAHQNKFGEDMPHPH
HMG-CoA reductase in A549 lung cancer cells, sequence (P04035 whole entry): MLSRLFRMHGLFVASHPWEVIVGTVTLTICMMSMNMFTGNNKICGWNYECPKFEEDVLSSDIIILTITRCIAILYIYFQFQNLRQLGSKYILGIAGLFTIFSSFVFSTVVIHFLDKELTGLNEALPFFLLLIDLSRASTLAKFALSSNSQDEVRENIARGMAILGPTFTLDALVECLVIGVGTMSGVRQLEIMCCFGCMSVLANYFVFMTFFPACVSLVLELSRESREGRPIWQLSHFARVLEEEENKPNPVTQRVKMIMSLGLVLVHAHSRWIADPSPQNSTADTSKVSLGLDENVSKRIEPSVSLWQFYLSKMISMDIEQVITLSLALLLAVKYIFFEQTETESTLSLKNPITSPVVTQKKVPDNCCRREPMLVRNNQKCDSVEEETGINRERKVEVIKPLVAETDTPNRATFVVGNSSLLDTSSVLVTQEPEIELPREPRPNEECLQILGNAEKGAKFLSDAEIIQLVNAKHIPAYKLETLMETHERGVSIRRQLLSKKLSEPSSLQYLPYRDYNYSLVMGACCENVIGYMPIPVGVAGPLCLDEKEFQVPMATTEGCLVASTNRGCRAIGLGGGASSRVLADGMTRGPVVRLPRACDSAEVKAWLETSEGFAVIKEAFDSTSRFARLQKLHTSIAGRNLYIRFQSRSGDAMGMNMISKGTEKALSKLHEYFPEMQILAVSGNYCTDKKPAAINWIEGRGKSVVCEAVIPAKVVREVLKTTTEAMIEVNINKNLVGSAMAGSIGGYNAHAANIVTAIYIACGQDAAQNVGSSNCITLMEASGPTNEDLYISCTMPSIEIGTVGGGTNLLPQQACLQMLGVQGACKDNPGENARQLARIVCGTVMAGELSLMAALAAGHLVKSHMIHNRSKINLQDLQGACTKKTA

SMILES | IC50 ([1]; Mus musculus, Fibroblast) [µM] | SI A549/MEF (selectivity index) [1] | IC50 ([2]; Homo sapiens, Hs68) [µM] | IC50 (HMG-CoA reductase (HMGR)) [nM] | cytotoxicity on MEF normal cells (in words) [1] | toxicity to normal cells at 100 μM [1] | IC50 (HDAC6) [nM] | IC50 (HDAC1) [nM] | cytotoxicity on HS68 normal cells (in words) [2] | toxicity to normal cells at 100 μM [2] | IC50 (HDAC2) | IC50 [3, 8] [µM] | HMGR inhibition (in words) (HMG-CoA reductase (HMGR)) | AOM/DSS-induced weight loss [5] | clinical symptoms [5] | histological examination of colon [5] | also measured
CCC(C)(C)C(=O)O[C@H]1C[C@@H](C)C=C2C=C[C@H](C)[C@H](CC[C@@H]3C[C@@H](O)CC(=O)O3)[C@H]21 [simvastatin, reference compound] | 36.7 ± 4.4 | 2.3 | 26.4 ± 2.1 |  |  |  |  |  |  |  |  |  |  |  |  |  | IC50 ([3]; Homo sapiens, A549, 72 h, read-out: IC50 (μM) A549): 16.3 ± 0.1 µM
CCC(C)(C)C(=O)O[C@H]1C[C@@H](C)C=C2C=C[C@H](C)[C@H](CC[C@@H](O)C[C@@H](O)CC(=O)NO)[C@H]21 [Simva-HA, (3R,5R)-7-{(1S,2S,6R,8S,8aR)-Hexahydro-2,6-dimethyl-8-[2-dimethylbutyryloxy]naphthalenyl}-3,5-dihydroxy-N-hydroxyheptanamide] | > 100 | >5.0 | > 100 | 11.4 | did not have cytotoxicity | not toxic | 67.1 | 60.7 ± 3.2 | did not have cytotoxicity | not toxic | 400 to 630 nM | < 20 |  |  |  |  | IC50 ([3]; read-out: IC50 (μM) A549, 72 h, MTT assay, listed as Simva-HA (2)): 20 ± 3.1 µM
CC(C)c1c(C(=O)Nc2ccccc2)c(-c2ccccc2)c(-c2ccc(F)cc2)n1CC[C@@H](O)C[C@@H](O)CC(=O)NO [Atorva-HA, (3R,5R)-7-[2-(4-Fluoro-phenyl)-5-isopropyl-3-phenyl-4-phenylcarbamoylpyrrol-1-yl]-3,5-dihydroxy-N-hydroxyheptanamide] | > 100 | >5.7 | > 100 | 9.2 | did not have cytotoxicity | not toxic | 83.7 | 117 | did not have cytotoxicity | not toxic | 467 ± 19 nM | < 20 | potent HMGR inhibition | could protect the weight loss | attenuated | surface tumor necrosis | acetylation of histone H3 and tubulin [4]: promoted the acetylations of histone and tubulin; number and size of tumors ([5]; 100 mg/kg oral): markedly reduced the number and size of tumors; cell viability of A549 (in words) ([3]; 72 h): reduced; IC50 ([3]; read-out: IC50 (μM) A549, 72 h, MTT assay, listed as Atorva-HA (5)): 17.5 ± 4.7 µM; HMGR inhibition in cell lysates compared with lovastatin [6]: equal or even better activity than lovastatin
CC(C)c1c(C(=O)Nc2ccccc2)c(-c2ccccc2)c(-c2ccc(F)cc2)n1CC[C@@H](O)C[C@@H](O)CC(=O)O [Atorvastatin, atorvastatin] | 30.7 ± 3.2 |  |  |  |  |  |  |  |  |  |  |  |  | could not protect | not reversed | adenocarcinomas with dysplasia | 
O=C(CCCCCCC(=O)Nc1ccccc1)NO [SAHA, suberoylanalide hydroxamic acid, reference compound] |  |  |  | > 10000 | toxic to normal cells |  |  |  | toxic to normal cells |  |  |  | no significant inhibition | could not protect | attenuated | surface tumor necrosis | cell viability of A549 (in words) ([3]; 72 h): killed cancer cells
CC[C@H](C)C(=O)O[C@H]1C[C@@H](C)C=C2C=C[C@H](C)[C@H](CC[C@@H]3C[C@@H](O)CC(=O)O3)[C@H]21 [Lovastatin, lovastatin] |  |  |  |  |  |  |  |  |  |  |  |  |  | could not protect | not reversed | adenocarcinomas with dysplasia | IC50 [1]: 35 ± 5.9 µM; IC50 [2]: 23.2 ± 3.5 µM; colon length ([7]; 50 mg/kg oral): 8.0±0.9 cm; histological examination of colon ([7]; 50 mg/kg oral): adenocarcinomas with dysplasia; bleeding and diarrhea (clinical symptoms) ([7]; oral, Lova-HA 25 or 50 mg/kg, lovastatin 50 mg/kg): not reversed; body weight loss after AOM/DSS ([7]; oral, Lova-HA 25 or 50 mg/kg, lovastatin 50 mg/kg, 5 days a week for 8 weeks): but not lovastatin could protect the weight loss
CCC(C)C(=O)O[C@H]1C[C@@H](C)C=C2C=C[C@H](C)[C@H](CC[C@@H](O)C[C@@H](O)CC(=O)NO)[C@H]21 (some centres unmarked) [Lova-HA] | > 100 | >5.6 | > 100 | 16.8 ± 1.9 | did not have cytotoxicity | not toxic | 50.5 ± 4 | 60.1 ± 5.3 | did not have cytotoxicity | not toxic | 468 ± 27.2 nM | < 20 |  |  |  |  | colon length ([7]; 25 mg/kg oral): 8.6±0.4 cm; colon length ([7]; 50 mg/kg oral): 10.1±0.9 cm; IC50 ([3]; read-out: IC50 (μM) A549, 72 h, MTT assay, listed as Lova-HA (1)): 18.2 ± 3.4 µM
CC(C)c1nc(N(C)S(C)(=O)=O)nc(-c2ccc(F)cc2)c1/C=C/[C@@H](O)C[C@@H](O)CC(=O)NO [Rosuva-HA, (3R,5S,6E)-7-[4-(4-fluorophenyl)-2-(N-methylmethanesulfonamido)-6-isopropylpyrimidin-5-yl]-3,5-dihydroxy-N-hydroxy-6-heptenamide] |  |  |  | 43.7 ± 1.6 |  |  | 133 ± 5.5 | 125 ± 7.1 |  |  | 400 to 630 nM and 600 nM |  | potent HMGR inhibition |  |  |  | acetylation of histone H3 and tubulin [4]: promoted the acetylations of histone and tubulin
